17 compounds from PubChem BioAssay (NCI) can be followed below.

“And” between values parts separate entries of the source, which are not always exact repeats. Equal values may be shown once.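 These data come from cells grown in 96-well plates and exposed to compound for 48 hours at five concentrations. GI50 marks 50% less growth. TGI marks complete inhibition of growth.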 Bounds are passed on as bounds.

The test system of the first test is OVCAR-5 ovarian. As to the kind of experiment: NCI tumour cell line growth inhibition, 48 h.
Consider `CCCCc1c(O)nc(Nc2nc3ccccc3[nH]2)[nH]c1=O`, for which the TGI is greater than 100 µM.
In the case of `Cc1c(S(=O)(=O)c2ccccc2)c(N)n(Cc2ccccc2)c1C`, the TGI was greater than 100 µM.
As to `COC(=O)C1(Cc2ccccc2)Cc2cc3c(cc2C1=O)CCC3` (configuration not stated), the TGI was greater than 100 µM.
The same measure, in the same setting: then `Cc1ccc(-c2cc(N)n(-c3nc4c([nH]3)c(=O)n(C)c(=O)n4C)n2)cc1`, with greater than 100 µM; and `COc1ccc(N2C(=O)C3c4[nH]c5ccc([N+](=O)[O-])cc5c4C4CCC(C(C)(C)C)CC4C3C2=O)cc1` (configuration not stated), with greater than 100 µM; and `CCOC(=O)CCC(NC(=O)c1ccc(OCc2nc3cc(C(F)(F)F)ccc3nc2-c2ccccc2)cc1)C(=O)OCC` (configuration not stated), with greater than 100 µM.
Consider `O=C(O)c1ccc(NC(c2ccccc2)c2ccc3cccnc3c2O)cc1` (configuration not stated), for which the TGI is greater than 100 µM.
`CC12CC(c3ccccc3O1)C(C(=O)Nc1ccc(F)cc1)C(=O)N2` (configuration not stated) returned a TGI greater than 100 µM.
Regarding `O=c1c2c3ccccc3[nH]c2c2cccc3c2n1CCC3`, the TGI is greater than 100 µM.
Still for that read-out and setting: for `COc1ccc(-c2c(C#N)c(N)n(C3OC(CO)C(O)C(O)C3O)c(=S)c2C#N)cc1` (configuration not stated) the value was greater than 100 µM; for `CCOC(=O)c1sc2nc(SC)nc3c2c1N=CN3c1ccc(Br)cc1`, greater than 100 µM; for `O=c1[nH]c2nc3ccccc3c(=O)n2/c1=C/c1ccc(O)cc1`, greater than 100 µM.
The compound `Nc1nc(Cl)cc(NCC2(CO)CC(CCc3ccccc3)C2)n1` (configuration not stated) came in with a TGI greater than 100 µM.
Consider `O=c1c2ccccc2[nH]c(=S)n1-c1ccc(N=Nc2cccc3c(O)cccc23)cc1`, for which the TGI was greater than 100 µM.
Compound `COc1ccc(-c2c(C#N)c(S)n(C3OC(COC(C)=O)C(OC(C)=O)C(OC(C)=O)C3OC(C)=O)c(=O)c2C#N)cc1` (configuration not stated) came in with a TGI greater than 100 µM.
For `C[C@]12OC[C@H](c3ccccc3)N1C(=O)C1[C@H]2CC12SCCS2` (some centres not stated), the TGI was greater than 100 µM.
`c1sc(NC2=NCCO2)c2c1CCCC2` returned a TGI greater than 100 µM.

Another test deals with MALME-3M melanoma. As to the kind of experiment: NCI tumour cell line growth inhibition, 48 h.
`CCCCc1c(O)nc(Nc2nc3ccccc3[nH]2)[nH]c1=O` gave a TGI greater than 100 µM.
The same measure, in the same setting: for `Cc1c(S(=O)(=O)c2ccccc2)c(N)n(Cc2ccccc2)c1C` the value was greater than 100 µM.
The compound `COC(=O)C1(Cc2ccccc2)Cc2cc3c(cc2C1=O)CCC3` (configuration not stated) displayed a TGI of 56.6 µM.
`Cc1ccc(-c2cc(N)n(-c3nc4c([nH]3)c(=O)n(C)c(=O)n4C)n2)cc1` showed a TGI of 16 µM.
On the same count and under the same terms, then `COc1ccc(N2C(=O)C3c4[nH]c5ccc([N+](=O)[O-])cc5c4C4CCC(C(C)(C)C)CC4C3C2=O)cc1` (configuration not stated), with greater than 100 µM; and `CCOC(=O)CCC(NC(=O)c1ccc(OCc2nc3cc(C(F)(F)F)ccc3nc2-c2ccccc2)cc1)C(=O)OCC` (configuration not stated), with greater than 100 µM.
`O=C(O)c1ccc(NC(c2ccccc2)c2ccc3cccnc3c2O)cc1` (configuration not stated) came in with a TGI greater than 100 µM.
The compound `CC12CC(c3ccccc3O1)C(C(=O)Nc1ccc(F)cc1)C(=O)N2` (configuration not stated) displayed a TGI greater than 100 µM.
`O=c1c2c3ccccc3[nH]c2c2cccc3c2n1CCC3` had a TGI of 71.1 µM.
`COc1ccc(-c2c(C#N)c(N)n(C3OC(CO)C(O)C(O)C3O)c(=S)c2C#N)cc1` (configuration not stated) had a TGI greater than 100 µM.
As to `CCOC(=O)c1sc2nc(SC)nc3c2c1N=CN3c1ccc(Br)cc1`, the TGI is greater than 100 µM.
The compound `O=c1[nH]c2nc3ccccc3c(=O)n2/c1=C/c1ccc(O)cc1` returned a TGI greater than 100 µM.
Regarding `Nc1nc(Cl)cc(NCC2(CO)CC(CCc3ccccc3)C2)n1` (configuration not stated), the TGI was greater than 100 µM.
On the same count and under the same terms, then `O=c1c2ccccc2[nH]c(=S)n1-c1ccc(N=Nc2cccc3c(O)cccc23)cc1`, with greater than 100 µM.
With `COc1ccc(-c2c(C#N)c(S)n(C3OC(COC(C)=O)C(OC(C)=O)C(OC(C)=O)C3OC(C)=O)c(=O)c2C#N)cc1` (configuration not stated), the GI50 was 77.1 µM and 37.7 µM; the TGI is greater than 100 µM.
Turning to `C[C@]12OC[C@H](c3ccccc3)N1C(=O)C1[C@H]2CC12SCCS2` (some centres not stated), the TGI is greater than 100 µM.
Regarding `c1sc(NC2=NCCO2)c2c1CCCC2`, the TGI is greater than 100 µM.

Another test relates to SK-OV-3 ovarian. The experiment in a line: NCI tumour cell line growth inhibition, 48 h.
Compound `CCCCc1c(O)nc(Nc2nc3ccccc3[nH]2)[nH]c1=O` gave a TGI greater than 100 µM.
On the same count and under the same terms, for `Cc1c(S(=O)(=O)c2ccccc2)c(N)n(Cc2ccccc2)c1C` the value was greater than 100 µM; for `COC(=O)C1(Cc2ccccc2)Cc2cc3c(cc2C1=O)CCC3` (configuration not stated), greater than 100 µM.
On to `Cc1ccc(-c2cc(N)n(-c3nc4c([nH]3)c(=O)n(C)c(=O)n4C)n2)cc1`, for which the TGI was 16.1 µM.
In turn, `COc1ccc(N2C(=O)C3c4[nH]c5ccc([N+](=O)[O-])cc5c4C4CCC(C(C)(C)C)CC4C3C2=O)cc1` (configuration not stated) came in with a TGI greater than 100 µM.
The compound `CCOC(=O)CCC(NC(=O)c1ccc(OCc2nc3cc(C(F)(F)F)ccc3nc2-c2ccccc2)cc1)C(=O)OCC` (configuration not stated) returned a TGI greater than 100 µM.
In turn, `O=C(O)c1ccc(NC(c2ccccc2)c2ccc3cccnc3c2O)cc1` (configuration not stated) gave a TGI greater than 100 µM.
On the same count and under the same terms, then `CC12CC(c3ccccc3O1)C(C(=O)Nc1ccc(F)cc1)C(=O)N2` (configuration not stated), with greater than 100 µM; and `O=c1c2c3ccccc3[nH]c2c2cccc3c2n1CCC3`, with greater than 100 µM; and `COc1ccc(-c2c(C#N)c(N)n(C3OC(CO)C(O)C(O)C3O)c(=S)c2C#N)cc1` (configuration not stated), with greater than 100 µM.
Turning to `CCOC(=O)c1sc2nc(SC)nc3c2c1N=CN3c1ccc(Br)cc1`, the TGI is greater than 100 µM.
Same read-out and setting: for `O=c1[nH]c2nc3ccccc3c(=O)n2/c1=C/c1ccc(O)cc1` the value was greater than 100 µM.
`Nc1nc(Cl)cc(NCC2(CO)CC(CCc3ccccc3)C2)n1` (configuration not stated) registered a TGI greater than 100 µM.
As for `O=c1c2ccccc2[nH]c(=S)n1-c1ccc(N=Nc2cccc3c(O)cccc23)cc1`, the TGI is greater than 100 µM.
For the compound `COc1ccc(-c2c(C#N)c(S)n(C3OC(COC(C)=O)C(OC(C)=O)C(OC(C)=O)C3OC(C)=O)c(=O)c2C#N)cc1` (configuration not stated), the TGI is 75.8 µM and > 100 µM.
On the same count and under the same terms, for `C[C@]12OC[C@H](c3ccccc3)N1C(=O)C1[C@H]2CC12SCCS2` (some centres not stated) the value was greater than 100 µM.
In turn, `c1sc(NC2=NCCO2)c2c1CCCC2` returned a TGI greater than 100 µM.
